Source: publication PMC7383625, “Sequence‐Based Prediction of Promiscuous Acyltransferase Activity in Hydrolases” (Angewandte Chemie (International Ed. in English), 2020)

Columns and labels:
Type in all cases: biochemical
[1] = biological target: T1, 3ZWQ (Pyrobaculum calidifontis, UniProt A3MVR4); assay: colorimetric pNPA acyltransferase assay, pNP release at […] nm; conditions: acyl donor; benzyl alcohol or 2-phenylethanol as acyl acceptor
T1 construct: gene Pcal_1307; named only by PDB code; construct in supplement
T1 sequence (A3MVR4 1-313): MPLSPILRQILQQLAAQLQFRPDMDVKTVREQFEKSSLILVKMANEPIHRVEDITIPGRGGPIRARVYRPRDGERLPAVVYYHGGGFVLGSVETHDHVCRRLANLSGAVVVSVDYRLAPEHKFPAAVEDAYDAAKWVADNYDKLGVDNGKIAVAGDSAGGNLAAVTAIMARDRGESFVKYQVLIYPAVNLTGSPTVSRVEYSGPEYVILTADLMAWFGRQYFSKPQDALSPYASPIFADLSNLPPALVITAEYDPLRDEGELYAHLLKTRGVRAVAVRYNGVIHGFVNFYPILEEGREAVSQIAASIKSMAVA

[2] = biological target: T2, 3FAK (uncultured bacterium, UniProt Q0GMU2); assay: as above; conditions: acyl donor; benzyl alcohol or 2-phenylethanol as acyl acceptor
T2 construct: named only by PDB code; construct in supplement
T2 sequence (Q0GMU2 with tags, fused parts or gaps): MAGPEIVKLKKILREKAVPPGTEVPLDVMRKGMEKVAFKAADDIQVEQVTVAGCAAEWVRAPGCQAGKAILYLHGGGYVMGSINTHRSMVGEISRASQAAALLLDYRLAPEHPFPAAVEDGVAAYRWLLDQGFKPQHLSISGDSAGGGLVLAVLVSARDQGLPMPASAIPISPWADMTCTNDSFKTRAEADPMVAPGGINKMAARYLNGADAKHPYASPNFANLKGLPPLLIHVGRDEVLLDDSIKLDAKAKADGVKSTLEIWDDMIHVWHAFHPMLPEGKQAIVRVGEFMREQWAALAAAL

[3] = biological target: T3, 4XVC (uncultured bacterium, UniProt Z9PJA9OM60); assay: as above; conditions: acyl donor; benzyl alcohol or 2-phenylethanol as acyl acceptor
T3 construct: named only by PDB code; construct in supplement
T3 sequence (Z9PJA9OM60 21-317): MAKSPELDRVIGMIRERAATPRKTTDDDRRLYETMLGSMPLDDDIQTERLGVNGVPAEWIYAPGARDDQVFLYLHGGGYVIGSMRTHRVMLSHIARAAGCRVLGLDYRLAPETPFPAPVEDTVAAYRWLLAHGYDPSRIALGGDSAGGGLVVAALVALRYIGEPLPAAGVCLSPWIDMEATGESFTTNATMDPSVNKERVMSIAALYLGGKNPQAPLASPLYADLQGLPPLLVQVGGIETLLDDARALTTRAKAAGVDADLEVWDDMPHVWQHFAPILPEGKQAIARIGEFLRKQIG

[4] = biological target: T4, Est8 (uncultured bacterium, UniProt Z9EH37ATT5); assay: as above; conditions: acyl donor; benzyl alcohol or 2-phenylethanol as acyl acceptor
T4 construct: bHSL esterase with N-terminal cap domain; crystal structure solved here
T4 sequence (Z9EH37ATT5 1-297): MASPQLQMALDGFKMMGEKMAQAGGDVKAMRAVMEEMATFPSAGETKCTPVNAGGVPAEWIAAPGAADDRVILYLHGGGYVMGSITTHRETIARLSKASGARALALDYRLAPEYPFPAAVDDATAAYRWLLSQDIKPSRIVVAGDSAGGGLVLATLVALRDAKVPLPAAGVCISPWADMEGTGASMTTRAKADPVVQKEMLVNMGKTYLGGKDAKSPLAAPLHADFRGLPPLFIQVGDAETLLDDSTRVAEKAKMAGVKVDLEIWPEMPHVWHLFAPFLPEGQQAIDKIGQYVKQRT

[5] = biological target: T5, 3K6K (uncultured bacterium, UniProt Z9ICY0V5A2); assay: as above; conditions: acyl donor; benzyl alcohol or 2-phenylethanol as acyl acceptor
T5 construct: named only by PDB code; construct in supplement
T5 sequence (Z9ICY0V5A2 15-328): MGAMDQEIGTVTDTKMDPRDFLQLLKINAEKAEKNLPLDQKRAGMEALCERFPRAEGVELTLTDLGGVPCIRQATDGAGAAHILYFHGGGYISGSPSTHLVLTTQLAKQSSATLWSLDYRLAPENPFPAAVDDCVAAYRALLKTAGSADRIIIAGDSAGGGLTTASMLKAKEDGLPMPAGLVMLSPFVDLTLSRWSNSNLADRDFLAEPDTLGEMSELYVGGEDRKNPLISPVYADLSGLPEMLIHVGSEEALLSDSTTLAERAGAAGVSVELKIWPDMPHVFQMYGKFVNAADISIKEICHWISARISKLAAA

[6] = biological target: T4, Est8; assay: GC of 2-phenylethyl acetate formation; conditions: acyl acceptor, 20 mM; vinyl acetate 200 mM as acyl donor; 200 mM buffer at pH optimum

| Structure (SMILES) | colorimetric pNPA acyltransferase assay, pNP release at 405 nm [1] | colorimetric pNPA acyltransferase assay, pNP release at 405 nm [2] | colorimetric pNPA acyltransferase assay, pNP release at 405 nm [3] | colorimetric pNPA acyltransferase assay, pNP release at 405 nm [4] | colorimetric pNPA acyltransferase assay, pNP release at 405 nm [5] | GC of 2-phenylethyl acetate formation [6] |
| --- | --- | --- | --- | --- | --- | --- |
| CC(=O)Oc1ccc([N+](=O)[O-])cc1 [pNPA] | 3ZWQ showed three‐fold higher acyltransferase activity with benzyl alcohol, outperforming 1EVQ | reactions were carried out for Est8 and its homologues using both benzyl alcohol | reactions were carried out for Est8 and its homologues using both benzyl alcohol | reactions were carried out for Est8 and its homologues using both benzyl alcohol | reactions were carried out for Est8 and its homologues using both benzyl alcohol | – |
| OCCc1ccccc1 [2-phenylethanol] | – | – | – | – | – | For Est8, product hydrolysis became more dominant than acyl transfer quickly |
